Columns and labels:
[1] = target: T1, Human σ1 receptor (Homo sapiens, UniProt Q99720); test: Human σ1 receptor radioligand assay ([3H](+)-pentazocine binding); settings: binding to the σ1 receptor, expressed as Ki class; + also covers inhibition between 1% and 50%
T1 construct: expressed in transfected cells; host or cells: HEK-293
In short: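 Ki was derived from five test concentrations, or % inhibition was measured at a single 1 or 10 μM dose, against 5 nM [3H](+)-pentazocine. Incubation was 120 min at 37° C in 50 mM Tris-HCl pH 8 with 7 μg HEK-293 membranes, and 10 μM haloperidol set non-specific binding. Bound radioactivity was counted after filtration.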

[2] = target: Human α2δ-1 subunit of Cav2.2 calcium channel (Homo sapiens, UniProt P54289); test: Human α2δ-1 subunit of Cav2.2 calcium channel assay ([3H]-gabapentin binding); settings: binding to the α2δ-1 subunit of voltage-gated calcium channels, expressed as Ki class; + also covers inhibition between 1% and 50%
In short: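 Affinity (Ki, five concentrations) or % inhibition at 1 or 10 μM, from displacement of 15 nM [3H]-gabapentin on human α2δ-1 membranes. Incubation 60 min, 27° C., Hepes-KOH 10 mM pH 7.4; 10 μM pregabalin defined non-specific binding; bound radioactivity counted after GF/C filtration.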

Human α2δ-1 subunit of Cav2.2 calcium channel, sequence (P54289 25-1103): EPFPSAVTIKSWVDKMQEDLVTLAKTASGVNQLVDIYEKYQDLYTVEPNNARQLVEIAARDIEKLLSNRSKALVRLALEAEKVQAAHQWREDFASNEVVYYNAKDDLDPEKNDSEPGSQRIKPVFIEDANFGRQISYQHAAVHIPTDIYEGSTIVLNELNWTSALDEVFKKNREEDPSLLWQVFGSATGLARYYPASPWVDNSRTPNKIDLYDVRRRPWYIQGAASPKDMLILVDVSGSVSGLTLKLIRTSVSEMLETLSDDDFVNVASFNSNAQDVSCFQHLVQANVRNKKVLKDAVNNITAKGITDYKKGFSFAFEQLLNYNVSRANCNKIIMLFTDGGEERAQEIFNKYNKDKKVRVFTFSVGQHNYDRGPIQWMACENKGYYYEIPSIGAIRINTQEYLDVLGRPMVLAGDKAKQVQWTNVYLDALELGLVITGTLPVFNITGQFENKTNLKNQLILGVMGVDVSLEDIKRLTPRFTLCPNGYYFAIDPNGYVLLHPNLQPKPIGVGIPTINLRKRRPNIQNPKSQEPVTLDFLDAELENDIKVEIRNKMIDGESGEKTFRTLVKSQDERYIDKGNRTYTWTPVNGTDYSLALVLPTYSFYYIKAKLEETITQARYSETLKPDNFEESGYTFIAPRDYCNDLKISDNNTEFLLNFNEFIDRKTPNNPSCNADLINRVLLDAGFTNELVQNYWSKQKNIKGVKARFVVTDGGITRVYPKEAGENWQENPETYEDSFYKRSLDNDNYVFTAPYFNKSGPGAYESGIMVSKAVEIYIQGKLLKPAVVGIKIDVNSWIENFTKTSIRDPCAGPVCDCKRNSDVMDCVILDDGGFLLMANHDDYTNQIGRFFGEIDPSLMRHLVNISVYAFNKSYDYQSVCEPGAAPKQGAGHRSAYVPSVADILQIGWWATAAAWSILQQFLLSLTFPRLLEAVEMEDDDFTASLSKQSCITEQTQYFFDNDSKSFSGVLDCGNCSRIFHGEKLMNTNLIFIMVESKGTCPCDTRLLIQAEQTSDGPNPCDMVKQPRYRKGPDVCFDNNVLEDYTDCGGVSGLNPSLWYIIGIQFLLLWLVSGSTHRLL
T1 sequence (Q99720 whole entry): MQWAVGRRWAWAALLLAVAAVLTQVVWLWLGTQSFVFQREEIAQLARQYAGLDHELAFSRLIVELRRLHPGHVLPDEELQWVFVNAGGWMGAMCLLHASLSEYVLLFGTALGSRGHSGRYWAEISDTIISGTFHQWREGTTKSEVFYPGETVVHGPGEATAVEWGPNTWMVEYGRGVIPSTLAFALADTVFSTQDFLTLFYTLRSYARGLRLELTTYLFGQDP

| SMILES | Ki [1] | Ki [2] |
| --- | --- | --- |
| CCC[C@@H](c1nc2ncc(Br)cc2c(=O)n1CC)N1CCN(C)C[C@H](C)C1 [Example 188, 6-bromo-2-((S)-1-((S)-4,6-dimethyl-1,4-diazepan-1-yl)butyl)-3-ethylpyrido[2,3-d]pyrimidin-4(3H)-one] | > 1000 nM | > 5000 nM |
| CCC[C@@H](c1nc2ncc(Br)cc2c(=O)n1CC)N1CCN(C)C[C@@H](C)C1 [Example 189, 6-bromo-2-((S)-1-((R)-4,6-dimethyl-1,4-diazepan-1-yl)butyl)-3-ethylpyrido[2,3-d]pyrimidin-4(3H)-one] | > 1000 nM | > 5000 nM |
| CCCC(c1nc2nc(C(F)(F)F)ccc2c(=O)n1CC)N1CCCN(C)CC1 (centres unmarked) [Example 190, 3-ethyl-2-(1-(4-methyl-1,4-diazepan-1-yl)butyl)-7-(trifluoromethyl)pyrido[2,3-d]pyrimidin-4(3H)-one] | > 1000 nM | 500 to 5000 nM |
| CCCC(c1nc2cnc(OC)cc2c(=O)n1CC)N1CCCN(C)CC1 (centres unmarked) [Example 191, 3-ethyl-6-methoxy-2-(1-(4-methyl-1,4-diazepan-1-yl)butyl)pyrido[3,4-d]pyrimidin-4(3H)-one] | > 1000 nM | < 500 nM |
| CCCC(c1nc2cnc(C(F)(F)F)cc2c(=O)n1CC)N1CCCN(C)CC1 (centres unmarked) [Example 192, 3-ethyl-2-(1-(4-methyl-1,4-diazepan-1-yl)butyl)-6-(trifluoromethyl)pyrido[3,4-d]pyrimidin-4(3H)-one] | > 1000 nM | < 500 nM |
| CCC[C@@H](c1nc2ncc(F)cc2c(=O)n1CC1CC1)N1CCN[C@H](C)CC1 [Example 193, 3-(cyclopropylmethyl)-6-fluoro-2-((S)-1-((R)-5-methyl-1,4-diazepan-1-yl)butyl)pyrido[2,3-d]pyrimidin-4(3H)-one] | > 1000 nM | > 5000 nM |
| CCC[C@H](c1nc2ncc(F)cc2c(=O)n1CC1CC1)N1CCN[C@@H](C)CC1 [Example 195, 3-(cyclopropylmethyl)-6-fluoro-2-((R)-1-((S)-5-methyl-1,4-diazepan-1-yl)butyl)pyrido[2,3-d]pyrimidin-4(3H)-one] | > 1000 nM | < 500 nM |
| CCC[C@H](c1nc2ncc(F)cc2c(=O)n1CC1CC1)N1CCN[C@H](C)CC1 [Example 196, 3-(cyclopropylmethyl)-6-fluoro-2-((R)-1-((R)-5-methyl-1,4-diazepan-1-yl)butyl)pyrido[2,3-d]pyrimidin-4(3H)-one] | > 1000 nM | < 500 nM |
| CCC[C@H](c1nc2ncc(Br)cc2c(=O)n1CC)N1CCNC[C@H](C)C1 [Example 197, 6-bormo-3-ethyl-2-((R)-1-((S)-6-methyl-1,4-diazepan-1-yl)butyl)pyrido[2,3-d]pyrimidin-4(3H)-one] | > 1000 nM | < 500 nM |
| CCC[C@@H](c1nc2ncc(Br)cc2c(=O)n1CC)N1CCNC[C@@H](C)C1 [Example 198, 6-bromo-3-ethyl-2-((S)-1-((R)-6-methyl-1,4-diazepan-1-yl)butyl)pyrido[2,3-d]pyrimidin-4(3H)-one] | > 1000 nM | > 5000 nM |
| CCC[C@H](c1nc2ncc(Br)cc2c(=O)n1CC)N1CCNC[C@@H](C)C1 [Example 199, 6-bromo-3-ethyl-2-((R)-1-((R)-6-methyl-1,4-diazepan-1-yl)butyl)pyrido[2,3-d]pyrimidin-4(3H)-one] | > 1000 nM | < 500 nM |
| CCC[C@@H](c1nc2ncc(Br)cc2c(=O)n1CC)N1CCNC[C@H](C)C1 [Example 200, 6-bromo-3-ethyl-2-((S)-1-((S)-6-methyl-1,4-diazepan-1-yl)butyl)pyrido[2,3-d]pyrimidin-4(3H)-one] | > 1000 nM | > 5000 nM |
| CCC[C@@H](c1nc2ncc(F)cc2c(=O)n1CC)N1CCCN(C)CC1 [Example 202, (S)-3-ethyl-6-fluoro-2-(1-(4-methyl-1,4-diazepan-1-yl)butyl)pyrido[2,3-d]pyrimidin-4(3H)-one] | > 1000 nM | > 5000 nM |
| CCCC(c1nc2ccc(O)cc2c(=O)n1CC)N1CCCN(C)CC1 (centres unmarked) [Example 203, 3-Ethyl-6-hydroxy-2-(1-(4-methyl-1,4-diazepan-1-yl)butyl)quinazolin-4(3H)-one] | > 1000 nM | < 500 nM |
| CCCC(c1nc2ccc(-c3ccccc3)cc2c(=O)n1CC)N1CCCN(C)CC1 (centres unmarked) [Example 204, 3-Ethyl-2-(1-(4-methyl-1,4-diazepan-1-yl)butyl)-6-phenylquinazolin-4(3H)-one] | > 1000 nM | < 500 nM |
| CCCC(c1nc2ccc(CC)cc2c(=O)n1CC)N1CCCN(C)CC1 (centres unmarked) [Example 205, 3,6-diethyl-2-(1-(4-methyl-1,4-diazepan-1-yl)butyl)quinazolin-4(3H)-one] | > 1000 nM | < 500 nM |
| CCCC(c1nc2ccc(NC3CCN(C)CC3)cc2c(=O)n1CC)N1CCCN(C)CC1 (centres unmarked) [Example 206, 3-Ethyl-2-(1-(4-methyl-1,4-diazepan-1-yl)butyl)-6-((1-methylpiperidin-4-yl)amino)quinazolin-4(3H)-one] | > 1000 nM | < 500 nM |

| SMILES | Ki [1] | Ki [2] |
| --- | --- | --- |
| CCCC(c1nc2ccc(Cc3ccccc3)cc2c(=O)n1CC)N1CCCN(C)CC1 (centres unmarked) [Example 207, 6-Benzyl-3-ethyl-2-(1-(4-methyl-1,4-diazepan-1-yl)butyl)quinazolin-4(3H)-one] | 500 to 1000 nM | < 500 nM |
| CCCC(c1nc2ccc(Br)cc2c(=O)n1CC(=O)O)N1CCCN(C)CC1 (centres unmarked) [Example 208, 2-(6-Bromo-2-(1-(4-methyl-1,4-diazepan-1-yl)butyl)-4-oxoquinazolin-3(4H)-yl)acetic acid] | > 1000 nM | > 5000 nM |
| CCC[C@H](c1nc2ccc(F)cc2c(=O)n1CC)N1CCCN(C)CC1 [Example 209, (R)-3-Ethyl-6-fluoro-2-(1-(4-methyl-1,4-diazepan-1-yl)butyl)quinazolin-4(3H)-one] | < 500 nM | < 500 nM |
| CCC[C@H](c1nc2ccc(F)cc2c(=O)n1CC)N1CCCN(CC)CC1 [Example 210, (R)-3-ethyl-2-(1-(4-ethyl-1,4-diazepan-1-yl)butyl)-6-fluoroquinazolin-4(3H)-one] | < 500 nM | < 500 nM |
| CCC[C@H](c1nc2ccc(F)cc2c(=O)n1CCC)N1CCCN(C)CC1 [Example 211, (R)-6-fluoro-2-(1-(4-methyl-1,4-diazepan-1-yl)butyl)-3-propylquinazolin-4(3H)-one] | < 500 nM | < 500 nM |
| CCC[C@H](c1nc2ccc(F)cc2c(=O)n1CCC)N1CCCN(CC)CC1 [Example 212, (R)-2-(1-(4-ethyl-1,4-diazepan-1-yl)butyl)-6-fluoro-3-propylquinazolin-4(3H)-one] | < 500 nM | < 500 nM |
| CCC[C@H](c1nc2ccc(I)cc2c(=O)n1CC)N1CCCN(C)CC1 [Example 213, (R)-3-ethyl-6-iodo-2-(1-(4-methyl-1,4-diazepan-1-yl)butyl)quinazolin-4(3H)-one] | 500 to 1000 nM | < 500 nM |
| CCC[C@H](c1nc2ccc(F)cc2c(=O)n1CC(C)C)N1CCCN(C)CC1 [Example 214, (R)-6-fluoro-3-isobutyl-2-(1-(4-methyl-1,4-diazepan-1-yl)butyl)quinazolin-4(3H)-one] | < 500 nM | < 500 nM |
| CCC[C@H](c1nc2ccc(F)cc2c(=O)n1CC(C)C)N1CCCN(CC)CC1 [Example 215, (R)-2-(1-(4-ethyl-1,4-diazepan-1-yl)butyl)-6-fluoro-3-isobutylquinazolin-4(3H)-one] | < 500 nM | < 500 nM |
| CCC[C@H](c1nc2ccc(F)cc2c(=O)n1C)N1CCCN(C)CC1 [Example 216, (R)-6-fluoro-3-methyl-2-(1-(4-methyl-1,4-diazepan-1-yl)butyl)quinazolin-4(3H)-one] | < 500 nM | 500 to 5000 nM |
| CCC[C@H](c1nc2ccc(F)cc2c(=O)n1C)N1CCCN(CC)CC1 [Example 217, (R)-2-(1-(4-ethyl-1,4-diazepan-1-yl)butyl)-6-fluoro-3-methylquinazolin-4(3H)-one] | < 500 nM | > 5000 nM |
| CCC[C@H](c1nc2ccc(F)cc2c(=O)n1CC1CC1)N1CCCN(CC)CC1 [Example 218, (R)-3-(cyclopropylmethyl)-2-(1-(4-ethyl-1,4-diazepan-1-yl)butyl)-6-fluoroquinazolin-4(3H)-one] | < 500 nM | < 500 nM |
| CCC[C@H](c1nc2ccc(F)cc2c(=O)n1CC1CC1)N1CCCN(C)CC1 [Example 219, (R)-3-(cyclopropylmethyl)-6-fluoro-2-(1-(4-methyl-1,4-diazepan-1-yl)butyl)quinazolin-4(3H)-one] | < 500 nM | < 500 nM |
| CCC[C@H](c1nc2cc(F)c(OC)cc2c(=O)n1CC)N1CCCN(C)CC1 [Example 220, (R)-3-ethyl-7-fluoro-6-methoxy-2-(1-(4-methyl-1,4-diazepan-1-yl)butyl)quinazolin-4(3H)-one] | > 1000 nM | < 500 nM |
| CCC[C@H](c1nc2ccc(F)cc2c(=O)n1CCC(C)C)N1CCCN(CC)CC1 [Example 221, (R)-2-(1-(4-ethyl-1,4-diazepan-1-yl)butyl)-6-fluoro-3-isopentylquinazolin-4(3H)-one] | < 500 nM | > 5000 nM |
| CCC[C@H](c1nc2ccc(F)cc2c(=O)n1C(C)C)N1CCCN(C)CC1 [Example 222, (R)-6-fluoro-3-isopropyl-2-(1-(4-methyl-1,4-diazepan-1-yl)butyl)quinazolin-4(3H)-one] | 500 to 1000 nM | > 5000 nM |
| CCC[C@H](c1nc2ccc(F)cc2c(=O)n1C(C)C)N1CCCN(CC)CC1 [Example 223, (R)-2-(1-(4-ethyl-1,4-diazepan-1-yl)butyl)-6-fluoro-3-isopropylquinazolin-4(3H)-one] | < 500 nM | > 5000 nM |
